From patent publication US20150105252A1, “SUBSTITUTED PYRAZOLES AS HERBICIDES” (E I DU PONT DE NEMOURS AND COMPANY, priority 2013, published 2015)

Key:
foxtail, giant [1] = experiment: Test A postemergence; type: in vivo, Setaria faberii
Procedure, shortened: (§1)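 Scoring was visual, on a scale where 100 means complete control and 0 means no effect, comparing treated with untreated plants around 10 days post-application. Compounds in surfactant-containing non-phytotoxic solvent were sprayed onto soil preemergence or onto one- to two-leaf seedlings (2–10 cm) postemergence.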

velvetleaf [2] = experiment: Test A postemergence; type: in vivo, Abutilon theophrasti
Procedure, shortened: as §1

wheat [3] = experiment: Test A postemergence; type: in vivo, Triticum aestivum
Procedure, shortened: as §1

corn [4] = experiment: Test A postemergence; type: in vivo, Zea mays
Procedure, shortened: as §1

galium [5] = experiment: Test C preemergence; type: in vivo, Galium aparine
Procedure, shortened: (§2)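 Greenhouse pot test: preemergence application onto freshly seeded loam/sand mix, postemergence application onto seedlings (1–4 leaves, 2–18 cm) in peat-vermiculite substrate. Responses scored visually 13 to 15 days later relative to controls, where 0 means no effect and 100 means complete control; a dash indicates no result.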

corn [6] = experiment: Test C preemergence; type: in vivo, Zea mays
Procedure, shortened: as §2

foxtail, giant [7] = experiment: Test C preemergence; type: in vivo, Setaria faberii
Procedure, shortened: as §2

soybean = experiment: Test C preemergence; type: in vivo, Glycine max
Procedure, shortened: as §2

waterhemp = experiment: Test C preemergence; type: in vivo, Amaranthus rudis
Procedure, shortened: as §2

wheat [8] = experiment: Test C postemergence; type: in vivo, Triticum aestivum
Procedure, shortened: as §2

galium [9] = experiment: Test C postemergence; type: in vivo, Galium aparine; details: for Galium plant response rating: scale 0 to 100
Procedure, shortened: as §2

foxtail, giant [10] = experiment: Test C postemergence; type: in vivo, Setaria faberii; details: for Foxtail, Giant plant response rating: scale 0 to 100
Procedure, shortened: as §2

morningglory = experiment: Test C postemergence; type: in vivo, Ipomoea coccinea; details: for Morningglory plant response rating: scale 0 to 100
Procedure, shortened: as §2

barnyardgrass = experiment: Test C postemergence; type: in vivo, Echinochloa crus-galli; details: for Barnyardgrass plant response rating: scale 0 to 100
Procedure, shortened: as §2

kochia = experiment: Test C postemergence; type: in vivo, Kochia scoparia; details: for Kochia plant response rating: scale 0 to 100
Procedure, shortened: as §2

velvetleaf [11] = experiment: Test C postemergence; type: in vivo, Abutilon theophrasti
Procedure, shortened: as §2

[12] = Postemergence, 500 g ai/ha, visual rating after approx. 10 days, 0 to 100 scale (0 no effect, 100 complete control)
[13] = postemergence, 125 g ai/ha, about 10 days, visual rating on 0 to 100 scale (0 no effect, 100 complete control)
[14] = Preemergence, 16 g ai/ha, scale 0 to 100
[15] = preemergence, 31 g ai/ha, scale 0 to 100 (0 no effect, 100 complete control), 13 to 15 days
[16] = preemergence, 62 g ai/ha, 13 to 15 days, scale 0 to 100, 0 = no effect, 100 = complete control
[17] = preemergence, 125 g ai/ha, scale 0 to 100, 0 is no effect, 100 is complete control
[18] = postemergence, 62 g ai/ha, scale 0 to 100
[19] = postemergence, 125 g ai/ha, scale 0 to 100, 0 no effect, 100 complete control

CCCNC(=O)c1cc(CC)n(Cc2ccnc(C(F)(F)F)c2)n1 [Compound 75]
Foxtail, Giant plant response rating (foxtail, giant [1]; [12]): 100
Foxtail, Giant plant response rating (foxtail, giant [1]; [13]): 90
Velvetleaf plant response rating (velvetleaf [2]; [12]): 100
Velvetleaf plant response rating (velvetleaf [2]; [13]): 90
Wheat plant response rating (wheat [3]; [12]): 90
Wheat plant response rating (wheat [3]; [13]): 80
Corn plant response rating (corn [4]; [12]): 90
Corn plant response rating (corn [4]; [13]): 80
Plant response rating, Galium (galium [5]; [14]): 90
Galium plant response rating (galium [5]; [15]): 100
Plant response rating, Galium (galium [5]; [16]): 100
Galium plant response rating (galium [5]; [17]): 100
Plant response rating, Corn (corn [6]; [14]): 10
Corn plant response rating (corn [6]; [15]): 60
Plant response rating, Corn (corn [6]; [16]): 98
Corn plant response rating (corn [6]; [17]): 100
Plant response rating, Foxtail, Giant (foxtail, giant [7]; [14]): 80
Foxtail, Giant plant response rating (foxtail, giant [7]; [15]): 85
Plant response rating, Foxtail, Giant (foxtail, giant [7]; [16]): 100
Foxtail, Giant plant response rating (foxtail, giant [7]; [17]): 100
Plant response rating, Soybean (soybean; [14]): 35
Soybean plant response rating (soybean; [15]): 85
Plant response rating, Soybean (soybean; [16]): 98
Soybean plant response rating (soybean; [17]): 98
Plant response rating, Waterhemp (waterhemp; [14]): 80
Waterhemp plant response rating (waterhemp; [15]): 100
Plant response rating, Waterhemp (waterhemp; [16]): 100
Waterhemp plant response rating (waterhemp; [17]): 100
Plant response rating (scale of 0 to 100), Wheat (wheat [8]; Postemergence, 16 g ai/ha): 0
Wheat plant response rating (wheat [8]; [18]): 5
Plant response rating, Wheat (wheat [8]; [19]): 5
Plant response rating (scale of 0 to 100), Galium (galium [9]; Postemergence, 16 g ai/ha): 50
Galium plant response rating (galium [9]; Postemergence, 31 g ai/ha): 60
Galium plant response rating (galium [9]; postemergence, 62 g ai/ha): 60
Plant response rating, Galium (galium [9]; [19]): 65
Plant response rating (scale of 0 to 100), Foxtail, Giant (foxtail, giant [10]; Postemergence, 16 g ai/ha): 15
Foxtail, Giant plant response rating (foxtail, giant [10]; Postemergence, 31 g ai/ha): 20
Foxtail, Giant plant response rating (foxtail, giant [10]; postemergence, 62 g ai/ha): 25
Plant response rating, Foxtail, Giant (foxtail, giant [10]; [19]): 50
Plant response rating (scale of 0 to 100), Morningglory (morningglory; Postemergence, 16 g ai/ha): 25
Morningglory plant response rating (morningglory; Postemergence, 31 g ai/ha): 75
Morningglory plant response rating (morningglory; postemergence, 62 g ai/ha): 80
Plant response rating, Morningglory (morningglory; [19]): 98
Plant response rating (scale of 0 to 100), Barnyardgrass (barnyardgrass; Postemergence, 16 g ai/ha): 5
Barnyardgrass plant response rating (barnyardgrass; Postemergence, 31 g ai/ha): 10
Barnyardgrass plant response rating (barnyardgrass; postemergence, 62 g ai/ha): 10
Plant response rating, Barnyardgrass (barnyardgrass; [19]): 35
Plant response rating (scale of 0 to 100), Kochia (kochia; Postemergence, 16 g ai/ha): 30
Kochia plant response rating (kochia; Postemergence, 31 g ai/ha): 60
Kochia plant response rating (kochia; postemergence, 62 g ai/ha): 60
Plant response rating, Kochia (kochia; [19]): 90
Plant response rating (scale of 0 to 100), Velvetleaf (velvetleaf [11]; Postemergence, 16 g ai/ha): 25
Velvetleaf plant response rating (velvetleaf [11]; [18]): 35
Plant response rating, Velvetleaf (velvetleaf [11]; [19]): 40
